Laboratory results as given in patent US9040714B2 (MannKind Corporation, priority 2010, dated 2015).
pEC50, pIC50: −log10 of the molar value. Read-outs that look alike come from different tables or passages of the source.

Assays:
[1] = system: IRE-1α-mediated XBP-1 splicing in human myeloma MM.1s cells; test: Cellular EC50: endogenous XBP-1 splicing in myeloma cells by RT-PCR (DTT stress); type: cell-based; conditions: MM1.S, read-out: EC50_av
Procedure, shortened: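 MM.1s myeloma cells were pretreated with compound 1.25 h, then stressed with 2 mM DTT for 45 min more (2 h total). XBP-1 was amplified by RT-PCR from total RNA with intron-flanking primers; ED50 taken at 50% spliced XBP-1s of total XBP-1.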

[2] = molecular target: human IRE-1α (GST-IRE-1α) (Homo sapiens (Human), UniProt O75460); test: IRE-1α assay in vitro: cleavage of Cy5/BHQ2-labelled mini-XBP-1 mRNA stem-loop substrate; type: biochemical; conditions: average IC50 for inhibition of IRE-1α
human IRE-1α (GST-IRE-1α), sequence (O75460 19-977): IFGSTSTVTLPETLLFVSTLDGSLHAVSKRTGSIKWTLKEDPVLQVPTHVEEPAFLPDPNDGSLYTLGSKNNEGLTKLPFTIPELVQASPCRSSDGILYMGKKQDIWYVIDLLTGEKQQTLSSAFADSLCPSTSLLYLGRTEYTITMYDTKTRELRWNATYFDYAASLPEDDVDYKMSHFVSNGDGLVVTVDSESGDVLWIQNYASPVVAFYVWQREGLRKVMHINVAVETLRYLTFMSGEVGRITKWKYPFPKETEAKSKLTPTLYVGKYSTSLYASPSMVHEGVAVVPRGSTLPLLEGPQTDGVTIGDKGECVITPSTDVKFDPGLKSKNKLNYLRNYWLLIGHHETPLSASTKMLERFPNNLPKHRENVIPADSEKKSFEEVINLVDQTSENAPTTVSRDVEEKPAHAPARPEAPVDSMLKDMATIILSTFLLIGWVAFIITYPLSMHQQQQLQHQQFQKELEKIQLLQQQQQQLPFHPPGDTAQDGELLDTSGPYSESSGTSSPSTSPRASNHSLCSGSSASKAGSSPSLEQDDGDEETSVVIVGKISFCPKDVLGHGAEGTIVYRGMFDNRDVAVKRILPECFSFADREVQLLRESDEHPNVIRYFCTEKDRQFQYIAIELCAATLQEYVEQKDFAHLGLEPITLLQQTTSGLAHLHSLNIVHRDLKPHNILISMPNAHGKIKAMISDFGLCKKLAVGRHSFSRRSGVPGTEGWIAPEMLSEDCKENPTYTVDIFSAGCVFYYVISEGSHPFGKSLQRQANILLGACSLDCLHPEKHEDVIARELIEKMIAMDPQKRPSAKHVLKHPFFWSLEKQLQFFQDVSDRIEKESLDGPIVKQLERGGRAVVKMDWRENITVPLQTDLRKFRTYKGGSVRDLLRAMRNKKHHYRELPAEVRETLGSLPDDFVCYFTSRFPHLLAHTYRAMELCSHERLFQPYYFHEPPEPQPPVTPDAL
Procedure: In some embodiments IRE-la inhibitor compounds form a complex with IRE-1α. […] Other substrates also can be used to detect cleavage. See US 2007/0105123.
A fusion protein comprising glutathione S transferase (GST) and human IRE-1α (GST-IRE-1α) obtained from a 500 ml baculovirus-infected insect cell culture can be used to measure IRE-1α activity in vitro.
Five μl of a reaction mixture comprising IX reaction buffer (5× reaction buffer is 100 mM Hepes pH 7.5, 250 mM KOAc, 2.5 mM MgCl2), 3 mM DTT, and 0.4% polyethylene glycol water is added to each well of 384 well plates. Twenty-five nanoliters of a 1 mM test compound solution are added to test wells. Three μl of a […] IRE-1α preparation are added to each test well and to positive control wells (final concentration 5.82 ng/well). Negative control wells contain only reaction mixture and test compound.
After spinning the plates at 1200 rpm for 30 seconds, 3 μl of an IRE-1α human mini-XBP-1 mRNA stem-loop substrate 5′-[…]-3′ (SEQ ID NO:1), labeled with the fluorescent dye Cy5 at the 5′ end and Black Hole Quencher 2 (BH2) at the 3′ end, are added to each well of a control plate. The plates are again spun at 1200 rpm for 30 seconds. Final concentrations for the assay are: 63 nM IRE-1α substrate, 5.82 ng IRE-1α protein, and 2.5 μM test compound.
The plates are covered with lids and incubated for one hour at 30° C. The plates are then transferred to an ACQUEST™ microplate reader. Data is analyzed using data analysis software, and the percent activity of IRE-1α is calculated.
IC50 for inhibition of IRE-1α of compounds identified in Table 1 was measured as described in EXAMPLE 35.

[3] = average cellular EC50, XBP-1 splicing in myeloma cells

pEC50 [1, 3]	pIC50 [2]	Structure (SMILES)	pEC50 [1]
> 5.00	> 7.00	Cc1nc(-c2cc3ccc(O)c(C=O)c3oc2=O)sc1C(=O)NCCN1CCOCC1 [Example 109]	–
> 5.00	> 7.00	COc1cc2c(C)c(-c3ccc(C(=O)N4CCN(C)CC4)cc3)c(=O)oc2c(C=O)c1O [Example 111]	–
> 5.00	> 7.00	Cc1c(/C=C/C(=O)N2CCN(C)CC2)c(=O)oc2c(C=O)c(O)ccc12 [Example 112]	–
> 5.00	> 6.00	COc1cc2c(C)c(-c3ccc(N4CCOCC4)nc3)c(=O)oc2c(C=O)c1O [Example 114]	–
> 5.00	> 6.00	COc1cc2c(C)c(-c3ccc(N(C)C)nc3)c(=O)oc2c(C=O)c1O [Example 115]	–
> 5.00	> 7.00	[2H]C(=O)c1c(O)ccc2c(C)c(-c3ccc(C(=O)NCCN4CCOCC4)cc3)c(=O)oc12 [Example 116]	–
> 5.00	> 7.00	CCc1cc2c(C)c(-c3ccc(C(=O)NCCOC)cc3)c(=O)oc2c(C=O)c1O [Example 118]	–
> 5.00	> 7.00	COCCOCCc1c(C)c2cc(OC)c(O)c(C=O)c2oc1=O [Example 127]	–
> 5.00	> 7.00	Cc1c(CC(=O)N2CCOCC2)c(=O)oc2c(C=O)c(O)ccc12 [Example 129]	–
> 5.00	> 7.00	COc1cc2c(CN3CCOCC3)c(C)c(=O)oc2c(C=O)c1O [Example 132]	–
> 5.00	> 7.00	COc1cc2c(CN(C)C)c(C)c(=O)oc2c(C=O)c1O [Example 133]	–
> 5.00	> 6.00	COCc1cc(=O)oc2c(C=O)c(O)c(OC)cc12 [Example 136]	–
> 5.00	> 7.00	COCc1c(C)c(=O)oc2c(C=O)c(O)ccc12 [Example 137]	–
< 5.00	> 6.00	COCCNC(=O)CCc1c(COC)c2cc(OC)c(O)c(C=O)c2oc1=O [Example 138]	–
> 5.00	> 7.00	COCc1c(CCC(=O)N2CCOCC2)c(=O)oc2c(C=O)c(O)c(OC)cc12 [Example 139]	–
< 5.00	> 6.00	COCc1c(CCC(=O)NCCN2CCOCC2)c(=O)oc2c(C=O)c(O)c(OC)cc12 [Example 140]	–
> 5.00	> 7.00	COc1cc2c(C)c(-c3ccc(C(=O)N4CCN(C)CC4)s3)c(=O)oc2c(C=O)c1O [Example 141]	–
> 5.00	> 7.00	COc1cc2c(C)c(-c3ccc(C(=O)N4CCOCC4)s3)c(=O)oc2c(C=O)c1O [Example 142]	–
> 5.00	> 6.00	COc1cc2c(C)c(-c3ccc(C(=O)NCCN4CCOCC4)s3)c(=O)oc2c(C=O)c1O [Example 143]	–
> 5.00	> 7.00	COc1cc2c(C(C)C)cc(=O)oc2c(C=O)c1O [Example 146]	–
< 5.00	> 7.00	COc1cc2c(C)c(CCC(=O)NCCO)c(=O)oc2c(C=O)c1O [Example 147]	–

Structure (SMILES)	pEC50 [1, 3]	pIC50 [2]	pEC50 [1]
Cc1nc(-c2c(C)c3ccc(O)c(C=O)c3oc2=O)sc1C(=O)N1CCN(C)CC1 [Example 110]	–	> 6.00	> 5.00
COc1cc2c(C)c(-c3ccc(N4CCN(C)CC4)nc3)c(=O)oc2c(C=O)c1O [Example 113]	–	> 7.00	> 5.00
CCc1cc2c(C)c(-c3ccc(C(=O)NCCN4CCOCC4)cc3)c(=O)oc2c(C=O)c1O [Example 117]	–	> 6.00	> 5.00
CCc1cc2c(C)c(-c3ccc(C(=O)N4CCOCC4)cc3)c(=O)oc2c(C=O)c1O [Example 119]	–	> 6.00	< 5.00
COc1cc(O)c(C=O)c2oc(=O)cc(C)c12 [Example 120]	–	> 6.00	> 5.00
COCCOc1cc(O)c(C=O)c2oc(=O)cc(C)c12 [Example 121]	–	> 7.00	> 5.00
Cc1c(CC(=O)N2CCN(C)CC2)c(=O)oc2c(C=O)c(O)ccc12 [Example 130]	–	> 7.00	> 5.00
CCOC(=O)Cc1c(C)c2cc(OC)c(O)c(C=O)c2oc1=O [Example 131]	–	> 7.00	> 5.00
